Entries after “also recorded” stand apart in the source; their conditions may differ.
How the values were obtained:
[1] = system: human dermal fibroblasts; assay: β-galactosidase staining in a model of UVB-induced senescence; assay type: cell-based
Method: (§1) In order to verify the action of the shikimic acid as a protector against the process of cellular senescence induced by Ultraviolet Type-B (UVB) damage, the shikimic acid was tested in a model of UVB-induced senescence in human dermal fibroblasts. In this model, two days after being plated, the cells are irradiated with UVB. After three days, the cells are re-irradiated with UVB. Two days after the second irradiation, the cells are processed for analysis. The shikimic acid is incubated with the cells from 24 h before the first irradiation until the day they are analysed. To assess whether cells are senescent or not, two markers are used. On the one hand, β-galactosidase staining is carried out, which stains the senescent cells blue, since they have an abnormal lysosomal activity at pH 6. Furthermore, the expression of the HAS2 gene is quantified by means of the qPCR technique.

[2] = system: HAS2 gene; assay: HAS2 gene expression by qPCR in a model of UVB-induced senescence; assay type: cell-based, human
Method: as §1

## N#CC(=Cc1ccc(-c2cc(Cl)ccc2Cl)o1)C(=O)Nc1cccc2ncccc12 [AGK2]
[1]; UVB-irradiated cells, 10, 25, 50 mM shikimic acid + AGK2 2 µM, Figures 5 and 6
  effect of inhibitor on the protective role of shikimic acid on senescence: do not reverse the protective effect of shikimic acid on senescence

## NC(=O)C1CCCc2c1[nH]c1ccc(Cl)cc21 (centres unmarked) [EX-527]
[1]; UVB-irradiated cells, 10, 25, 50 mM shikimic acid + EX-527 1 µM, Figure 3
  effect of inhibitor on the protective role of shikimic acid on senescence (β-galactosidase staining): capable of reversing the effect of shikimic acid on senescence
[2]; UVB-irradiated cells, shikimic acid (SX) + EX-527 1 µM versus SX only, Figure 4
  HAS2 gene expression with shikimic acid + inhibitor: reversed to a lesser extent

## O=C(Nc1ccc(O)c(C(=O)O)c1)c1cccc(NC(=O)c2ccco2)c1 [OSS128167]
[1]; UVB-irradiated cells, 10, 25, 50 mM shikimic acid + OSS128167 200 µM, Figures 7 and 8
  effect of inhibitor on the protective role of shikimic acid on senescence: do not reverse the protective effect of shikimic acid on senescence

## COC1=C(OC)C(=O)C(CCCCCCCCCCO)=C(C)C1=O [idebenone]
[1]; UVB-irradiated cells treated with 2.5, 5, 10 µM idebenone, Figure 9
  protection against UVB damage-induced senescence (β-galactosidase staining): neither of these two comparative compounds is capable of protecting against UVB damage-induced senescence

## O=C(O)CCCCC1CCSS1 (centres unmarked) [lipoic acid]
[1]; UVB-irradiated cells treated with 50, 100, 200 µM lipoic acid, Figure 10
  protection against UVB damage-induced senescence (β-galactosidase staining): neither of these two comparative compounds is capable of protecting against UVB damage-induced senescence

## O=C(O)C1=CC(O)C(O)C(O)C1 (centres unmarked) [shikimic acid, 3,4,5-trihydroxy-1-cyclohexene-1-carboxylic acid]
[1]; UVB-irradiated human dermal fibroblasts treated with 10, 25, 50 mM shikimic acid, Figure 1
  senescent cells (β-galactosidase staining): this increase in senescence does not occur; also recorded: more effective than other compounds such as idebenone or lipoic acid
[2]; UVB-irradiated human dermal fibroblasts treated with 10, 25, 50 mM shikimic acid, Figure 2
  HAS2 gene expression: this decrease is reversed in gene expression

Reference: EP3808411A1, “COSMETIC COMPOSITIONS AND USE THEREOF” (Mesoestetic Pharma Group, S.L., priority 2019, dated 2020)
